The text below walks through data of patent publication EP0212310A2, “Use of probucol in the preparation of a medicament for the treatment of heart arrhythmia” (priority 1985, dated 1987).

Where “and” joins values, the source holds several entries; their conditions need not be identical. Equal values may be shown once.

The subject of data set [1] is Patienten mit Hyperlipoproteinämie. Kind of data set: 12-lead standard ECG: QT time and heart rate in verum and placebo phases of a controlled study. The class given is in vivo. The text has this:
Je ein 12-Ableitungs-Standard-EKG wurde registriert. • 1. In der Placebophase • 2. In der Verumphase nach 12 Wochen • 3. In der Verumphase nach 24 Wochen • 4. In der Placebophase 42 Tage nach Absetzen von Probucol
Für jede der Aufzeichnungen wurde jeweils die frequenzkorrigierte QT-Zeit ermittelt (Bazett-Formula).
Unter Verwendung des Wilcoxon-Tests für verbundene Stichproben wurde geprüft, ob ein signifikanter Unterschied der QT-Dauer zwischen den Placebophasen und den Verumphasen besteht.

Data set [2] has the same test system. Kind of data set: 24-hour long-term ECG: arrhythmia frequency under placebo (control) and under verum. The class given is in vivo. The text has this:
Von allen 42 Patienten wurde mittels Oxfolg-Medilog II Registriergeräten ein 24-Stunden-Langzeit-EKG sowohl in der Verum- als auch in der Placebophase registriert.
Die Bänder wurden ohne Kenntnis der Therapie unter Verwendung eines Reynolds Pathfinder-Analysesytems ausgewertet, dessen Sensitivität zur Identifikation von QRS-Komplexion bei 99 %, zur Erkennung ventrikulärer Extrasystolen bei 96 % lag. Neben den normalen und extrasystolischen QRS-Komplexen wurden auch die folgenden Arrhythmieformen quantitativ erfaßt: supraventrikuläre Extrasystolen, supraventrikuläre Tachykardien, ventrikuläre Extrasystolen, R/T-Phänomene,gepaarte ventrikuläre Extrasystolen, mehrere hintereinander auftretende ventrikuläre Extrasystolen, Kammertachykardien, ventrikuläre Bigemini und Asystolien. Darüber hinaus wurden erfaßt Phasen intermittierenden Vorhofflimmerns, intermittierende Schenkelblockbilder und das Herzfrequenzverhalten.
Die stündliche Häufigkeit der verschiedenen Rhythmusstö-rungen wurden erfaßt und auf einem Computerausdruck dokumentiert. Die Analyse wurde korrigiert, indem der Vorgang jedes Mal unterbrochen wurde, wenn eine ventrikuläre Extrasystole erkannt wurde. Diese wurde dann jeweils 1 : 1 auf EKG-Papier ausgeschrieben und durch den Untersucher verifiziert. Im Falle der falsch positiven Erkennung eines Ereignisses wurde der Computerausdruck entsprechend korrigiert. Dadurch wurde die positive Korrektheit der Analyse auf 100 % gesteigert. In Tabelle 3 sind die korri gierten Ergebnisse wiedergegeben.
Bei der relativen Seltenheit komplexer tachykarder ventrikulärer Rhythmusstörungen im untersuchten Kollektiv wurde eine Bewertung des Therapieeffektes lediglich für die ventrikulären Extrasystolen vorgenommen. Hierbei ließ sich die Frage nach einem möglichen paradoxen arrhythmogenen Effekt naturgemäß für alle Patienten beantworten, die Frage nach einem antiarrhythmischen Effekt dagegen nur bei den Patienten, deren spontane Arrhythmiehäufigkeit in der Placebophase eine gewisse Häufigkeit überschritt. Hierfür wurde willkürlich eine Grenze von wenigstens einer Extrasystole/Stunde, entsprechend 24 in 24 Stunden, gefordert.
Als Hinweis auf einen möglichen paradoxen arrhythmogenen Effekt des Medikaments werteten wir eine Zunahme der Extrasystoliehäufigkeit gegenüber Placebo um wenigstens 150 %. Als Hinweis auf einen möglichen antiarrhythmischen Effekt werteten wir eine Abnahme der spontanen Extrasystoliehäufigkeit um wenigstens 60 %, als Hinweise auf einen wahrscheinlichen antiarrhythmischen Effekt eine Abnahme der Extrasystoliehäufigkeit um wenigstens 75 %.

The test system is the same in data set [3]. To be noted: in vivo. The text has this: Bei 42 Patienten mit Hyperlipoproteinämie wurde im Rahmen einer kontrollierten Studie die Wirkung von Probucol gegen Placebo geprüft.
[4] abbreviates: number out of 17 patients with more than 1 VES/h under placebo.

For the compound `CC(C)(Sc1cc(C(C)(C)C)c(O)c(C(C)(C)C)c1)Sc1cc(C(C)(C)C)c(O)c(C(C)(C)C)c1` [Probucol], in data set [1] (1000 mg daily, versus placebo), the “Verlängerung der frequenzkontrollierten QT-Zeit” value is listed as “ca. 5%”. In addition, in data set [1] (mean, N 41, phase Verum-2), the “Verum-2 F Mittelw.” value is given as 64,32 and the “Verum-2 QT Mittelw.” value is listed as 0,40. For the same compound, in data set [1] (mean, N 41, phase Verum-4), the “Verum-4 F Mittelw.” value was 66,49 and the “Verum-4 QT Mittelw.” value is on record as 0,38. In data set [1] (therapy phase 1 or 2 versus placebo phase 1 or 2, p = 0.002, Wilcoxon test), the “frequenzkorrigierte QT-Zeit unter Probucol im Vergleich zu den Placebophasen” value is on record as “signifikant verlängert”. Besides, the “Patienten mit Abnahme der Extrasystolie um wenigstens 60 %” value in data set [2] (further patients out of the 8 with more than 15 VES/h spontaneous frequency) is “Drei”. Also, the “komplexe tachykarde ventrikuläre Rhythmusstörungen unter Therapie” value in data set [2] (in the 3 patients with paradoxical arrhythmogenic effect) is listed as “Bei keinem der 3 Patienten”. For the same compound, in data set [2] (in vivo), the “Patienten mit signifikanter Zunahme der spontanen Arrhythmiehäufigkeit unter Probucol (paradoxe arrhythmogene Wirkung)” value is listed as 3 and the “ventrikulärer Bigeminus” value was “bei einem Patienten unter Verum, jedoch nicht unter Placebo”. Besides, the “Abnahme der Extrasystoliefrequenz” value in data set [2] (individual values of the 8 patients with more than 15 VES/h spontaneous frequency) is 60% and 66% and 69% and 89% and 90% and 94% and 95% and 100%. Also, the “Patienten mit statistisch signifikanter Abnahme der Extrasystoliefrequenz um mehr als 75 %” value in data set [2] (number out of 8 patients with more than 15 VES/h spontaneous frequency) turned out to be 5. Also, in data set [2] (setting [4]), the “Patienten mit Reduktion der Extrasystolen unter Therapie über 75 %” value is on record as 7 and the “Patienten mit Reduktion der Extrasystolen zwischen 60 und 75 %” value stood at 3. The “Patienten mit Reduktion der spontanen Extrasystoliefrequenz, die auf eine antiarrhythmische Wirkung hinweist” value in data set [2] (share of the 17 patients with more than 1 VES/h under placebo, reduction of at least 60 %) came out at 59%. Also, in data set [3], the Nebenwirkungen entry is “gelegentlich Durchfall, Bauchschmerzen und Kopfschmerzen”.
